Test results as given in ChEMBL document CHEMBL3508693 (2016).

Experiments:
[1] = Excretion (0-72h) of aliskiren in faeces following intravenous administration of [14C] aliskiren hemifumarate at 1 mg.Kg-1 level in marmoset; type: ADME, organism-based, Callithrix jacchus, Feces; details: in vivo
[2] = % SPP100 (0-168h) recovered in urine following single intravenous dose of [14C] aliskiren hemifumarate at 1 mg.Kg-1 level in marmoset; type: ADME, organism-based, Callithrix jacchus; details: in vivo
CYP3A4 = CYP3A4 (Homo sapiens, UniProt P08684); test: Inhibitory activity of 200 µM SPP100 on cDNA-derived CYP3A4 enzyme in microsome prepared from human lymphoblastoid cell line; type: ADME, microsomes; design: conc 200 uM, interact cpd conc 120 uM; details: probe testosterone (120 uM)
[3] = %Unchanged aliskiren in faeces following 10 day repeated oral administration of [14C] aliskiren hemifumarate at 100 mg.Kg-1 level studied in rat; type: ADME, organism-based, Albino HAN:WIST, Feces; details: in vivo, 240 h
[4] = % SPP100 in urine following single oral dose of 300 mg [14C]SPP100 studied in healthy men; type: ADME, organism-based; details: human, in vivo, at 300 mg
[5] = % of radioactivity recovered as aliskiren in faeces following intravenous administration of [14C] aliskiren hemifumarate at 10 mg.Kg-1 level in rat; type: ADME, organism-based, Albino HAN:WIST, Feces; details: in vivo
CYP2D6 = CYP2D6 (Homo sapiens, UniProt P10635); test: Inhibitory activity of 200 µM SPP100 on cDNA-derived CYP2D6 enzyme in microsome prepared from human lymphoblastoid cell line; type: ADME, microsomes; design: conc 200 µM, interact cpd conc 10 uM; details: probe bufuralol (10 uM)
[6] = % of radioactivity (48h) recovered in gastrointestinal tract of receiver rat following duodenal infusion of radioactivity through bile from donor rat treated with single intravenous administration of 10 mg.Kg-1 [14C] aliskiren hemifumarate; type: ADME, organism-based, HAN:WIST(SPF); details: in vivo
[7] = Total excretion (0-96h) of radioactivity in urine, faeces and cage wash following single intravenous dose of 10 mg.Kg-1 [14C] aliskiren hemifumarate in mouse; type: ADME, organism-based, Urine/Feces; details: rat, in vivo
[8] = Biliary elimination of aliskiren following single oral dose of [14C] aliskiren hemifumarate at 500 mg.Kg-1 level in mouse; type: ADME, organism-based, TgRasH2, Bile; details: in vivo
[9] = Excretion of radioactivity (0-384h) in faeces following 10 day repeated oral administration of [14C] aliskiren hemifumarate at 100 mg.Kg-1 level studied in rat; type: ADME, organism-based, Albino HAN:WIST, Feces; details: in vivo
Cytochrome P450 2D6 = Cytochrome P450 2D6 (Homo sapiens, UniProt P10635); test: Metabolic clearance (ul.min.nmol-1 CYP) of aliskiren hemifumarate for CYP2D6 was determined in human liver microsome incubated with [14C]SPP100 hemifumarate; type: ADME; details: microsomes
[10] = Concentration of radioactivity in the colon wall following repeated oral administration of [14C] aliskiren hemifumarate at 100 mg.Kg-1 level studied at 2h after 7th dose in rat; type: ADME, organism-based, Albino HAN:WIST; details: in vivo
[11] = Excretion (0-168h) of 14C-radioactivity in faeces following single oral dose of 300 mg [14C]SPP100 studied in healthy men; type: ADME, organism-based, Feces; details: human, in vivo, at 300 mg
[12] = Excretion (0-24h) of radioactivity in urine following intravenous administration of [14C] aliskiren hemifumarate at 1 mg.Kg-1 level in marmoset; type: ADME, organism-based, Callithrix jacchus; details: in vivo
[13] = Excretion (0-96h) of 14C-radioactivity in faeces following single oral dose of 300 mg [14C]SPP100 studied in healthy men; type: ADME, organism-based, Feces; details: human, in vivo, at 300 mg
[14] = Faecal elimination of aliskiren following single oral dose of [14C] aliskiren hemifumarate at 500 mg.Kg-1 level in mouse; type: ADME, organism-based, TgRasH2, Feces; details: in vivo
[15] = Excretion (0-168h) of radioactivity in urine following oral administration of [14C] aliskiren hemifumarate at 3 mg.Kg-1 level in marmoset; type: ADME, organism-based, Callithrix jacchus; details: in vivo
[16] = Mean excretion of radioactivity (48-72h) in urine and faeces following single intravenous dose of 10 mg.Kg-1 [14C] aliskiren hemifumarate in mouse; type: ADME, organism-based, TgRasH2, Urine/Feces; details: in vivo
[17] = Excretion of radioactivity (24-48h) in faeces following single intravenous dose of 10 mg.Kg-1 [14C] aliskiren hemifumarate in mouse; type: ADME, organism-based, TgRasH2, Feces; details: in vivo
[18] = AUC (0-24h) of aliskiren hemifumarate following 4 week oral dietary dosing of aliskiren hemifumarate at 500 mg.Kg-1 level in female mouse; type: ADME, organism-based; details: CB6F1-TGrasH2, mouse, plasma
[19] = Tmax of aliskiren hemifumarate following 2 week oral dosing of aliskiren hemifumarate at 50 mg.Kg-1 level studied on day 14 in female Callithrix jacchus; type: ADME, organism-based; details: marmoset, plasma
[20] = Cmax/dose of aliskiren hemifumarate following 4 week oral dietary dosing of aliskiren hemifumarate at 2000 mg.Kg-1 level in male mouse; type: ADME, organism-based, CB6F1-TGrasH2; details: in vivo, 672 h
[21] = AUC/dose (0-168h) of unlabeled aliskiren hemifumarate following single oral administration of aliskiren hemifumarate at 3 mg.Kg-1 level in marmoset; type: ADME, organism-based, Callithrix jacchus, Plasma; details: in vivo
[22] = Cmax (0-96h) of unlabeled aliskiren hemifumarate following intravenous administration of aliskiren hemifumarate at 10 mg.Kg-1 level in rat; type: ADME, organism-based; details: Albino HAN:WIST, plasma
[23] = Tmax of aliskiren hemifumarate following single dosing of SPP100B oral solution at 640 mg level studied on day 1 in men; type: ADME, organism-based; details: male, human, plasma
[24] = Cmaxspec of aliskiren hemifumarate following 2 week oral dosing of aliskiren hemifumarate at 50 mg.Kg-1 level studied on day 14 in female Callithrix jacchus; type: ADME, organism-based, Plasma; details: marmoset, in vivo, 336 h
[25] = Cmax/dose of aliskiren hemifumarate following 4 week oral dietary dosing of aliskiren hemifumarate at 1000 mg.Kg-1 level in female mouse; type: ADME, organism-based, CB6F1-TGrasH2; details: in vivo, 672 h
[26] = Tmax of unlabeled aliskiren hemifumarate following single oral dose of aliskiren hemifumarate at 500 mg.Kg-1 level in mouse; type: ADME, organism-based; details: TgRasH2, mouse, plasma
[27] = AUC(0-24h) of aliskiren hemifumarate following 2 week oral dosing of aliskiren hemifumarate at 100 mg.Kg-1 level studied on day 1 in male Callithrix jacchus; type: ADME, organism-based; details: marmoset, plasma
[28] = AUC (0-24h)/dose of aliskiren hemifumarate following 4 week oral dietary dosing of aliskiren hemifumarate at 500 mg.Kg-1 level in male mouse; type: ADME, organism-based, CB6F1-TGrasH2, Plasma; details: in vivo
[29] = Effect of 2 week oral dosing of aliskiren hemifumarate at 50 mg.Kg-1 level on plasma magnesium level in female Callithrix jacchus; type: toxicity, organism-based; details: marmoset, 336 h
[30] = t1/2 of aliskiren hemifumarate following 2 week oral dosing of aliskiren hemifumarate at 50 mg.Kg-1 level studied on day 14 in female Callithrix jacchus; type: ADME, organism-based; details: marmoset, plasma
[31] = Tmax of aliskiren hemifumarate following 4 week oral dietary dosing of aliskiren hemifumarate at 1500 mg.Kg-1 level in male mouse; type: ADME, organism-based; details: CB6F1-TGrasH2, mouse, in vivo
[32] = Cmax of aliskiren hemifumarate following 8 day once-daily dosing of SPP100B oral solution at 640 mg level studied on day 8 in men; type: ADME, organism-based; details: male, human, plasma
[33] = AUC (0-24h) of aliskiren hemifumarate following 4 week oral dietary dosing of aliskiren hemifumarate at 1000 mg.Kg-1 level in female mouse; type: ADME, organism-based; details: CB6F1-TGrasH2, mouse, plasma
[34] = Effect of 4 week oral dietary dosing of aliskiren hemifumarate at 500 mg.Kg-1 level on spermatogenesis in male mouse; type: toxicity, organism-based, CB6F1-TGrasH2, Testis; details: in vivo, 672 h
[35] = AUC of aliskiren hemifumarate following 8 day once-daily dosing of SPP100B oral solution at 40 mg level studied on day 8 in men; type: ADME, organism-based; details: male, human, plasma
[36] = Effect of 2 week oral dosing of aliskiren hemifumarate at 50 mg.Kg-1 level on plasma creatinine level in female Callithrix jacchus; type: toxicity, organism-based; details: marmoset, 336 h

Chain of CYP3A4 (P08684 whole entry): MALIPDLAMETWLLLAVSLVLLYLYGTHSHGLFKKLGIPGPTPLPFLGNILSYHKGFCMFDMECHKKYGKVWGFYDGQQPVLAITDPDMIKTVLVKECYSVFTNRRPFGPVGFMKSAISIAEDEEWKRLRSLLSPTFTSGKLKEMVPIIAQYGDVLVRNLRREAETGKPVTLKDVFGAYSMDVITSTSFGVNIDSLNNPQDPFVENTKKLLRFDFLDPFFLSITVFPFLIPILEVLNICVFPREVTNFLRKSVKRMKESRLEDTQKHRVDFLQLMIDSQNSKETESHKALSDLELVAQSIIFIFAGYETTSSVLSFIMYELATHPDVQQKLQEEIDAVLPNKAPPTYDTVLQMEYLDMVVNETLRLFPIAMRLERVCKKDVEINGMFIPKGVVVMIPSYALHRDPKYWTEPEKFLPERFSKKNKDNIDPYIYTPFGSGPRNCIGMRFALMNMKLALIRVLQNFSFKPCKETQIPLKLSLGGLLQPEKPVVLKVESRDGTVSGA
Chain of Cytochrome P450 2D6 (P10635 whole entry): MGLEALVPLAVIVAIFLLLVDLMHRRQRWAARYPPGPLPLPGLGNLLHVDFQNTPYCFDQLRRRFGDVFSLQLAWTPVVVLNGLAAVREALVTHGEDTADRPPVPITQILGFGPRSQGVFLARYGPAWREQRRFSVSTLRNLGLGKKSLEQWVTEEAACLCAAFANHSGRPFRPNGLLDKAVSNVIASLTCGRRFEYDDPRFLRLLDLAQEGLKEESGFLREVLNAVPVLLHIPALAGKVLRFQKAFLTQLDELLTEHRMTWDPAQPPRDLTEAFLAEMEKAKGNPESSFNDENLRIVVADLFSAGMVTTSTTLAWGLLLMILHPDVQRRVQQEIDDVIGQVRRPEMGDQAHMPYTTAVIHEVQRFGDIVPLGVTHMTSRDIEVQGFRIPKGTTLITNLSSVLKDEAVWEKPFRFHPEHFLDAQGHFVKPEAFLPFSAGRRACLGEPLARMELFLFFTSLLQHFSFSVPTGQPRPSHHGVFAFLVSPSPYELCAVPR
Chain of CYP2D6 (P10635 whole entry, the tested form may be a part): as the sequence (P10635 whole entry) above

COCCCOc1cc(C[C@@H](C[C@H](N)[C@@H](O)C[C@H](C(=O)NCC(C)(C)C(N)=O)C(C)C)C(C)C)ccc1OC
Compound recovery [1]: 36%
Compound recovery [2]: 3%
inhibition at 200 µM (CYP3A4): 11%
Compound recovery [3]: 80%
Compound recovery [4]: 0.4%
Compound recovery [5]: > 40%
inhibition at 200 uM (CYP2D6): 37%

COCCCOc1cc(C[C@@H](C[C@H](N)[C@@H](O)C[C@H](C(=O)NCC([14CH3])([14CH3])C(N)=O)C(C)C)C(C)C)ccc1OC.O=C(O)/C=C/C(=O)O
Radiolabel recovery [6]: 59.8%
Radiolabel recovery [7]: 96.2%
Radiolabel recovery [8]: OUTCOME = Observed, VALUE = Elimination of aliskiren occurred mainly via the biliary or faecal route
Radiolabel recovery [9]: 102%
CL (Cytochrome P450 2D6): 74.4 µL·min/nmol
Radiolabel recovery [10]: OUTCOME = Observed, VALUE = Highest radioactivity concentration was observed
Radiolabel recovery [11]: 90.89%
Radiolabel recovery [12]: 0.61%
Radiolabel recovery [13]: 88.17%
Radiolabel recovery [14]: OUTCOME = Observed, VALUE = Elimination of aliskiren occurred mainly via the biliary or faecal route
Radiolabel recovery [15]: 4.5%
Radiolabel recovery [16]: 0.9%
Radiolabel recovery [17]: 5.69%

COCCCOc1cc(C[C@@H](C[C@H](N)[C@@H](O)C[C@H](C(=O)NCC(C)(C)C(N)=O)C(C)C)C(C)C)ccc1OC.COCCCOc1cc(C[C@@H](C[C@H](N)[C@@H](O)C[C@H](C(=O)NCC(C)(C)C(N)=O)C(C)C)C(C)C)ccc1OC.O=C(O)/C=C/C(=O)O [ALISKIREN FUMARATE]
AUC(0-t) at 24 h [18]: 0.857 µg·h/mL
Tmax [19]: 1 h
Cmax normalised [20]: 0.22 (ng/mL)/(mg/kg/day)
AUC normalised [21]: 1.52 (umol.h/L)/(mg/kg)
Cmax [22]: 29.2 µM
Tmax [23]: 2.1 h
Cmax normalised [24]: 0.202 (ug/ml)/(mg/kg)
Cmax normalised [25]: 0.167 (ng/mL)/(mg/kg/day)
Tmax [26]: 1 h
AUC(0-t) at 24 h [27]: 76.4 µg·h/mL
AUC normalised [28]: 3.41 ((ng/mL).hours)/(mg/kg/day)
Plasma magnesium_CHANGE_BY [29]: 130%
half-life [30]: 8.19 h
Tmax [31]: 3 h
Cmax [32]: 0.335 µg/mL
AUC(0-t) at 24 h [33]: 2.28 µg·h/mL
Change in spermatogenesis [34]: OUTCOME = No abnormalities. No animals died during the study.
AUC at 192 h [35]: 0.0467 µg·h/mL
CREAT_CHANGE_BY [36]: 130%
